Structures can show the parent of a compound that is named as a salt.
Tests used:
[1] = target: T1, h P2X2/3 (Homo sapiens, UniProt P56373+Q9UBL9); test: In vitro electrophysiology assay for P2X2/3 (same protocol, 10 μM ATP as agonist); format: cell-based; conditions: Table 7, range of activity
T1 sequence (P56373 1-397): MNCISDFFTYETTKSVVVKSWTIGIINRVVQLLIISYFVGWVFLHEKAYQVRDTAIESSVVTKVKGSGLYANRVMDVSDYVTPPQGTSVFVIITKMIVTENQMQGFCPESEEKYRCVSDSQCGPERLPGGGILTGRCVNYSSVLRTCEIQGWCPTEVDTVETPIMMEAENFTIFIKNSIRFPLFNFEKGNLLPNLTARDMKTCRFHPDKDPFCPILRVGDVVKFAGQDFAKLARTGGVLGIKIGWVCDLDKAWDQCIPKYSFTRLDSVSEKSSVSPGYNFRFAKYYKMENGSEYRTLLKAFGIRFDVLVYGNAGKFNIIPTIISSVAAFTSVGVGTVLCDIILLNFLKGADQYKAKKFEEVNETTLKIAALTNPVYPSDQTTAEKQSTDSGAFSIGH
T1 sequence (Q9UBL9 1-471): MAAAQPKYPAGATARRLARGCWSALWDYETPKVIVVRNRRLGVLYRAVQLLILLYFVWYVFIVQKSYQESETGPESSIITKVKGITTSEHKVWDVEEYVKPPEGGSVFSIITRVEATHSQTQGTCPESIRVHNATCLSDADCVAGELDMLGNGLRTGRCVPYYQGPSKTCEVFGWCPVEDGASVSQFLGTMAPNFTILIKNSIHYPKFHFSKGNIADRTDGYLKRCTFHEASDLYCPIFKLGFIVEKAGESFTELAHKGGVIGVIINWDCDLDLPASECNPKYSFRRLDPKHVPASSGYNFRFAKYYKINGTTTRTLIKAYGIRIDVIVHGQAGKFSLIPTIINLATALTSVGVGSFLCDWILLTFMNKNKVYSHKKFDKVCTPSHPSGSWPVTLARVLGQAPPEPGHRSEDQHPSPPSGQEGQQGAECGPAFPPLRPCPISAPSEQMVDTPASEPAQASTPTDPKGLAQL
Description: (§1) Cells expressing P2X3 receptors were grown according to standard practice and maintained at 37° C. in a 5% humidified CO2 atmosphere. The cells were seeded into T175 flask 2 days prior to the day of the assay and dissociated from the flasks using TrypLE when grown to confluence of 80-90%. The dissociated cells were resuspended in serum free media at a cell density of 3×10^6 cells/ml and loaded onto the Sophion Qube automated patch-clamp system. The extracellular assay buffer contained 145 mM NaCl, 4 mM KCl, 2 mM CaCl2), 1 mM MgCl2, 10 mM HEPES, and 10 mM glucose at pH 7.4. The intracellular assay solution contained 140 mM CsF, 10 mM NaCl, 10 mM EGTA, 10 mM HEPES at pH 7.2. Agonist stock solutions were prepared in H2O and diluted in bath solution prior to use. All antagonists were prepared as 10 mM stock solutions in DMSO and diluted in bath solution prior to use. All experiments were performed under the whole-cell patch clamp configuration at room temperature with 384 individual cells being voltage clamped at −60 mV simultaneously on the Sophion Qube instrument. Two baseline responses were established with the application of α,β-MeATP (800 nM), with the subsequent agonist applications being washed out using extracellular assay buffer containing 0.5 U/ml apyrase. Following the second agonist application, antagonist was incubated in the absence of α,β-MeATP for 10 minutes. After antagonist preincubation, 800 nM α,β-MeATP and antagonist were co-administered to determine the inhibitory effect of the antagonist. One concentration of an antagonist was assessed against a single cell, with different concentrations of the antagonist applied to other cells on the 384 recording substrate. The control P2X3 current amplitude was taken from the peak current amplitude from the second agonist response prior to preincubation with antagonist. The peak P2X3 current amplitude in the presence of antagonist was used to calculate the inhibitory effect at each concentration of the antagonist according to the following equation: […]
(§2) Concentration-response curves were constructed from ten different concentrations with each concentration of antagonist tested on at least two individual cells. The concentration of the antagonist to inhibit P2X3 current by 50% (IC50) was determined by fitting the data with the following equation: […]
(§3) Where ‘a’ is minimum response, ‘b’ is maximum response, ‘c’ is IC50 and ‘d’ is Hill slope.
Representative compound of the present invention have been also tested for P2X2/3 receptor.
The same assay protocol was used for the P2X2/3 assay as the P2X3 assay with two modifications: 1) 10 μM ATP was used as the agonist; and 2) the mean current amplitude was measured seven seconds after the application of agonist.

[2] = target: T2, h P2X3 (Homo sapiens, UniProt P56373); test: In vitro electrophysiology assay for P2X3 (automated whole-cell patch clamp, Sophion Qube); format: cell-based; conditions: Table 6; range of activity; inhibition of P2X3 current, agonist α,β-MeATP (800 nM)
T2 sequence (P56373 1-397): T1 sequence (P56373 1-397)
Description: Pharmacological Activity of the Compounds of the Invention In Vitro Electrophysiology Assay for P2X3
as §1, §2, §3
The results for individual compounds are provided below in Table 6 and are expressed as range of activity.
The activity of the comparative examples A and B have been tested in the in vitro Electrophysiology Assay for P2X3 as described above.

| IC50 [1] [nM] | IC50 [2] [nM] | Structure (SMILES) |
| --- | --- | --- |
| 316 to 3160 | – | CNS(=O)(=O)c1cc(-c2ccc(F)cc2)cc2c(N[C@H](C)c3ccc(C)nn3)ncnc12 [Example 19, (R)-6-(4-fluorophenyl)-N-methyl-4-((1-(6-methylpyridazin-3-yl)ethyl)amino)quinazoline-8-sulfonamide] |
| 316 to 3160 | – | CNS(=O)(=O)c1cc(-c2ccc(F)cc2)cc2c(N[C@H](C)c3noc(C)n3)ncnc12 [Example 20, (R)-6-(4-fluorophenyl)-N-methyl-4-((1-(5-methyl-1,2,4-oxadiazol-3-yl)ethyl)amino)quinazoline-8-sulfonamide] |
| – | < 316 | COc1cc(-n2cc(Cl)cn2)cc2c(N[C@H](C)c3cnc(C(F)(F)F)nc3)ncnc12 [Example 104, (R)-6-(4-chloro-1H-pyrazol-1-yl)-8-methoxy-N-(1-(2-(trifluoromethyl)pyrimidin-5-yl)ethyl)quinazolin-4-amine] |
| – | 316 to 3160 | COc1cc(-c2ccn(C)n2)cc2c(NC(C)c3nnc(C)o3)ncnc12 (centres unmarked) [Example 105] |
| – | < 316 | COc1cc(-c2ncc(C)s2)cc2c(NC(C)c3nnc(C)s3)ncnc12 (centres unmarked) [Example 106, 8-methoxy-N-(1-(5-methyl-1,3,4-thiadiazol-2-yl)ethyl)-6-(5-methylthiazol-2-yl)quinazolin-4-amine] |
| – | 316 to 3160 | COc1cc(-c2ncc(F)cn2)cc2c(NC(C)c3nnc(C)o3)ncnc12 (centres unmarked) [Example 110, 6-(5-fluoropyrimidin-2-yl)-8-methoxy-N-(1-(5-methyl-1,3,4-oxadiazol-2-yl)ethyl)quinazolin-4-amine] |
| – | < 316 | COc1cc(-c2ncc(C)s2)cc2c(NCc3nnc(C)s3)ncnc12 [Example 114, 8-methoxy-N-((5-methyl-1,3,4-thiadiazol-2-yl)methyl)-6-(5-methylthiazol-2-yl)quinazolin-4-amine] |
| – | < 316 | COc1cc(-c2ncc(C)s2)cc2c(NCc3ccn(C)c(=O)c3)ncnc12 [Example 115, 4-(((8-methoxy-6-(5-methylthiazol-2-yl)quinazolin-4-yl)amino)methyl)-1-methylpyridin-2(1H)-one] |
| – | < 316 | COc1cc(-c2ncc(C)s2)cc2c(NCc3ncc(F)cc3F)ncnc12 [Example 118, N-((3,5-difluoropyridin-2-yl)methyl)-8-methoxy-6-(5-methylthiazol-2-yl)quinazolin-4-amine] |
| – | < 316 | COc1cc(-c2ncc(C)s2)cc2c(NCc3ccc(F)cn3)ncnc12 [Example 119, N-((5-fluoropyridin-2-yl)methyl)-8-methoxy-6-(5-methylthiazol-2-yl)quinazolin-4-amine] |
| – | 316 to 3160 | COc1cc(-c2ccc(F)cn2)cc2c(NCc3noc(C)n3)ncnc12 [Example 132, 6-(5-Fluoropyridin-2-yl)-8-methoxy-N-((5-methyl-1,2,4-oxadiazol-3-yl)methyl)quinazolin-4-amine] |
| – | 316 to 3160 | COc1cc(-c2ccc(F)cn2)cc2c(NCc3nc(C)no3)ncnc12 [Example 133, 6-(5-fluoropyridin-2-yl)-8-methoxy-N-((3-methyl-1,2,4-oxadiazol-5-yl)methyl)quinazolin-4-amine] |
| – | 316 to 3160 | COc1cc(-c2ccc(F)cn2)cc2c(NCc3nnc(C)o3)ncnc12 [Example 134, 6-(5-fluoropyridin-2-yl)-8-methoxy-N-((5-methyl-1,3,4-oxadiazol-2-yl)methyl)quinazolin-4-amine] |
| – | 316 to 3160 | COc1cc(-c2ccc(F)cn2)cc2c(NCc3cc(C)no3)ncnc12 [Example 135, 6-(5-fluoropyridin-2-yl)-8-methoxy-N-((3-methylisoxazol-5-yl)methyl)quinazolin-4-amine] |
| – | 316 to 3160 | COc1cc(-c2ccc(F)cn2)cc2c(NCc3cc(C)on3)ncnc12 [Example 138, 6-(5-fluoro-2-pyridyl)-8-methoxy-N-[(5-methylisoxazol-3-yl)methyl]quinazolin-4-amine] |
| – | < 316 | COc1cc(-c2ccc(C)cn2)cc2c(NCc3cc(C)on3)ncnc12 [Example 139, 8-methoxy-N-[(5-methylisoxazol-3-yl)methyl]-6-(5-methyl-2-pyridyl)quinazolin-4-amine] |
| – | 316 to 3160 | COc1cc(-c2ccc(F)cn2)cc2c(NCc3ccn(C)n3)ncnc12 [Example 140, 6-(5-fluoro-2-pyridyl)-8-methoxy-N-[(1-methylpyrazol-3-yl)methyl]quinazolin-4-amine] |
| – | 316 to 3160 | COc1cc(-c2ccc(C)cn2)cc2c(NCc3ccn(C)n3)ncnc12 [Example 141, 8-methoxy-N-[(1-methylpyrazol-3-yl)methyl]-6-(5-methyl-2-pyridyl)quinazolin-4-amine] |
| – | 316 to 3160 | COc1cc(-c2ccc(F)cn2)cc2c(NCc3ccn(C)c(=O)c3)ncnc12 [Example 147, 4-(((6-(5-fluoropyridin-2-yl)-8-methoxyquinazolin-4-yl)amino)methyl)-1-methylpyridin-2(1H)-one] |
| – | 316 to 3160 | COc1cc(-c2ccc(F)cn2)cc2c(NCc3cc[nH]c(=O)c3)ncnc12 [Example 148, 4-(((6-(5-fluoropyridin-2-yl)-8-methoxyquinazolin-4-yl)amino)methyl)pyridin-2(1H)-one] |
| – | 316 to 3160 | COc1cc(-c2ncc(C)cn2)cc2c(NCc3nc(C)no3)ncnc12 [Example 156, 8-Methoxy-N-((3-methyl-1,2,4-oxadiazol-5-yl)methyl)-6-(5-methylpyrimidin-2-yl)quinazolin-4-amine] |
| – | 316 to 3160 | COc1cc(-c2ccc(F)cn2)cc2c(N[C@H](C)c3ccn(C)n3)ncnc12 [Example 158, 6-(5-fluoro-2-pyridyl)-8-methoxy-N-[(1R)-1-(1-methylpyrazol-3-yl)ethyl]quinazolin-4-amine] |
| – | 3160 to 31600 | COc1cc(-c2ncc(C)cn2)cc2c(NCC(=O)N3CCOCC3)ncnc12 [Example 160, 2-((8-methoxy-6-(5-methylpyrimidin-2-yl)quinazolin-4-yl)amino)-1-morpholinoethan-1-one] |
| – | 316 to 3160 | COc1cc(-c2ccc(F)cc2)cc2c(NCc3ccc(F)cn3)ncnc12 [Example 161, 6-(4-Fluorophenyl)-N-[(5-fluoro-2-pyridyl)methyl]-8-methoxy-quinazolin-4-amine] |
| – | < 316 | COc1cc(-c2ccc(F)cc2)cc2c(N[C@@H](C)c3cnc(C(F)(F)F)nc3)ncnc12 [Example 185, 6-(4-fluorophenyl)-8-methoxy-N-[(1S)-1-[2-(trifluoromethyl)pyrimidin-5-yl]ethyl]quinazolin-4-amine formate] |
| – | 3160 to 31600 | COc1cc(C2=CCOCC2)cc2c(NCc3ccc(C)nn3)ncnc12 [Example 188, 6-(3,6-Dihydro-2H-pyran-4-yl)-8-methoxy-N-((6-methylpyridazin-3-yl)methyl)quinazolin-4-amine] |
